The values below come from patent US9687845B2, “Self-loading microfluidic device and methods of use” (Wisconsin Alumni Research Foundation, priority 2011, dated 2017).

Read-outs that look alike come from different tables or passages of the source.

The subject of experiment [1] is K. pneumoniae. The experiment can be described thus: Growth in sugars, culture tubes. It counts as cell-based. The text has this:
(§1) Results observed in microfluidic devices are illustrated in FIGS. 29A-F and 30A-E. The predicted growth as compared to devices and culture tubes are summarized in Table 2.

The test system of experiment [2] is S. aureus. The experiment can be described thus: Growth in sugars, culture tubes. It counts as cell-based. The note with it: culture tubes.
From the text: as §1

Experiment [3] relates to E. faecalis. Nature of the experiment: Growth in sugars, culture tubes. It counts as cell-based.
From the text: as §1

In experiment [4] the test system is E. coli (UT189). The experiment can be described thus: Growth in sugars, culture tubes. It is filed as cell-based.
From the text: as §1

The test system of experiment [5] is E. faecalis. To be noted: cited from earlier work.
The subject of experiment [6] is S. aureus. To be noted: cited from earlier work.
Experiment [7] concerns K. pneumoniae. The experiment can be described thus: Growth in sugars, microfluidic device (phenol red colour change). It is filed as cell-based. To be noted: for Growth, Device: K. pneumoniae, sugar 1% (w/v), LB with 0.05% phenol red pH 8.2; for growth in device chamber: K. pneumoniea-1 and K. pneumoniea-2, by 4 hours of incubation. As for the experimental part: (§2) Self-loading microfluidic devices were prepared as described above. Reaction wells were filled with different sugar solutions including (1) cellbiose, (2) glycerol, (3) lactose, (4) mannitol, (5) mannose, (6) raffinose, (7) sucrose, (8) trehalose, (9) xylose, and (10) control (no sugar) (FIG. 28). The final concentration of the sugar in each chamber was 1% (w/v). After loading the sugar solutions, the liquid was evaporated as described above. The devices were then assembled and degassed by vacuum.
(§3) Cultures of A. baumannii-1, A. baumannii-2, K. pneumoniea-1, K. pneumoniea-2, S. aureus-1, S. aureus-2, E. coli (UT189), E. faecalis-1, E. faecalis-2, V. cholerae-1, and (11) V. cholerae-2 were grown for 15 hours in LB (pH 7.0). The cultures were then diluted at a ratio of 1:50 in LB containing 0.05% (w/v) phenol red (pH8.2) and added to individual devices using degas-driven flow. Growth of bacteria results in a pH change of the LB that causes a color change from red (illustrated in FIGS. 29 and 30 as filled chambers) to yellow (illustrated in FIGS. 29 and 30 as hatched chambers).

The test system of experiment [8] is S. aureus. Described as above. It counts as cell-based. The note with it: for growth in device chamber: S. aureus-1, by 8 hours of incubation; for Growth, Device: S. aureus, sugar 1% (w/v), LB with 0.05% phenol red pH 8.2. As for the experimental part: as §2, §3
Experiment [9] relates to E. faecalis. Described as above. It counts as cell-based. To be noted: E. faecalis-1 and E. faecalis-2; by 18 hours of incubation. As for the experimental part: as §2, §3
In experiment [10] the test system is E. coli (UT189). The experiment is described as above. The note with it: E. coli (UT189); sugar 1% (w/v), LB with 0.05% phenol red pH 8.2. It counts as cell-based. On the procedure:
as §2, §3

In a further experiment the test system is V. cholerae. The description is as above. To be noted: V. cholerae-1 and V. cholerae-2; by 4 hours of incubation. It counts as cell-based. On the procedure:
as §2, §3

Experiment [11] deals with E. coli (UT189). The note with it: cited from earlier work.
For experiment [12], the system named is kanamycin-resistant strain of E. coli MG1655. The experiment can be described thus: Susceptibility to multiple antibiotics on a single microfluidic device using breakpoint values. It counts as cell-based. To be noted: 18 h; for effect on growth of the strain: vancomycin 2, 4, 8 μg/mL, tetracycline 0.5, 1, 2 μg/mL, kanamycin 1, 2, 4 μg/mL. The text has this: In this Example, a single microfluidic device was used to simultaneously test the susceptibility of the kanamycin-resistant strain of E. coli MG1655 described above to multiple antibiotics using breakpoint values.
In clinical microbiology, a strain is classified as susceptible, intermediate, or resistant based on the relationship of the MIC of an antibiotic to specified ‘breakpoint’ values. Breakpoint values are set by organizations, such as the CLSI, and take into consideration MIC values of wild type strains, pharmacokinetic/pharmacodynamic data, and clinical outcomes. Breakpoint values are available for specific clinically relevant pairings of bacterial species and antibiotics and enable clinical decisions without knowing the exact MIC value.
Specifically, vancomycin, tetracycline, and kanamycin were added to the reaction wells of a single device. The most common breakpoints for vancomycin (susceptible <2 μg/mL, resistant >2 μg/mL), tetracycline (susceptible <1 μg/mL, intermediate=2 μg/mL, resistant >2 μg/mL), and gentamicin (susceptible <2 μg/mL, intermediate=4 μg/mL, resistant >4 μg/mL) were used. As there are no published breakpoints available for kanamycin, the breakpoint values for the structurally related aminoglycoside, gentamicin, against aerobic bacteria was used. A microfluidic device with ten chambers was prepared as described in Example 1 above. The ten chambers were divided into three chambers for each antibiotic vancomycin (2, 4, 8 μg/mL), tetracycline (0.5, 1, 2 μg/mL), and kanamycin (1, 2, 4 μg/mL) and one chamber for a control containing no antibiotic.

The subject of experiment [13] is E. coli (MG1655). Nature of the experiment: Off-chip MIC, broth dilution method according to CLSI protocols. It counts as cell-based. Details: MIC, Broth: unit not given beside the values. The note with it: for MIC, Broth: E. coli, broth dilution, CAMHB, 20 h at 35° C. On the procedure: (§4) Off-chip MIC assays using the broth dilution method according to CLSI protocols were performed as control experiments and to validate experimental data obtained with the microfluidic device.
Background: In broth dilution the organism is exposed to a series of concentrations in liquid medium.

For experiment [14], the system named is P. mirabilis (HI4320). The description is as above. It is filed as cell-based. Details: unit not given beside the values. The note with it: CAMHB, 20 h at 35° C. On the procedure: as §4
Experiment [15] has as its system E. faecalis (1131). Described as above. It counts as cell-based. Details: unit not given beside the values. To be noted: CAMHB, 20 h at 35° C. (vancomycin 24 h). On the procedure:
as §4

Experiment [16] relates to kanamycin-resistant E. coli strain (from MG1655). Nature of the experiment: microbe, parasite or virus in culture. The note with it: Escherichia coli, MG1655, 18 h, read-out: MIC of the resistant strain.
Procedure: Specifically, 100 μL of an overnight culture of E. coli MG1655 were plated on LB agar plates supplemented with 16 μg/mL kanamycin; the antibiotic concentration was ˜2× the MIC of kanamycin measured against E. coli MG1655. […] One of these colonies was characterized for its sensitivity to kanamycin in the microfluidic device. The kanamycin-resistant strain was compared to the wild type parent strain.
The devices were assembled and placed under vacuum for degassing. After the devices were removed from the vacuum, an aliquot (20 μL) of a suspension of cells of the resistant strain was introduced into the inlet port of one device and an aliquot (20 μL) of a suspension of cells of the wild type strain was introduced into the inlet port of the second device. Degas-driven flow filled and isolated the samples in the chambers. The devices were incubated for 18 h at 35° C. in a humidified incubator.
To eliminate external equipment needed for interpreting the test results, a pH sensor was incorporated to indicate cell growth. Specifically, the pH indicator phenol red (0.05% w/v) and glucose (1% w/v) were added to CAMHB media and adjusted the pH to 8.2. Phenol red was selected as it produces a distinct color change close to neutral pH and is not absorbed by PDMS. At the initial pH of the nutrient media, pH 8.2, phenol red appears bright red. […]
In experiment [17] the test system is K. pneumoniae. Nature of the experiment: Off-chip MIC, broth dilution method according to CLSI protocols. To be noted: CAMHB, 20 h at 35° C. It counts as cell-based. As for the experimental part: as §4
Experiment [18] relates to kanamycin-resistant E. coli strain (from MG1655). Nature of the experiment: microbe, parasite or virus in culture. To be noted: Escherichia coli, MG1655, read-out: MIC of the resistant strain, control broth dilution.
Procedure: A 1:10 dilution series of the stock solutions in cation-adjusted Mueller-Hinton broth (CAMHB) was prepared and added to CAMBH (pH 7.3) to create a two-fold series dilution in which the total volume was 1 mL. Cell solutions of E. faecalis (1131), P. mirabilis (HI4320), K. pneumoniae, and E. coli (MG1655) were prepared in 13×100 mm tubes by adjusting the concentration of cells in overnight cultures to match the turbidity of a 0.5 McFarland standard (˜10^8 CFU/mL) using CAMHB. The solutions were diluted 100-fold in CAMHB and 1 mL of the suspension was added to 1 mL of antibiotic solution—prepared as described above—to yield a final cell concentration of ˜5×10^5 CFU/mL. The cultures were incubated for 20 h in a humidified incubator at 35° C. (no shaking) with the exception of experiments with vancomycin and E. faecalis, which were incubated for 24 h according to CLSI protocols. The MIC was determined as the lowest concentration of antibiotic at which no growth was visible after incubation.
Thus, the MIC of the kanamycin-resistant E. coli strain and the susceptible strain was determinable by visually identifying the chamber containing the lowest concentration of kanamycin in which the pH indicator remained red.
The subject of experiment [19] is K. pneumoniae. The experiment can be described thus: MIC measurement using the self-loading microfluidic device. It counts as cell-based. To be noted: 18 h at 35° C., CAMBH pH 8.2 with 1% glucose and 0.05% phenol red, dilution series 0.5-1024 μg/mL. On the procedure:
(§5) Minor adjustments were made to procedures mimicking the CLSI guidelines to perform MIC measurements using microfluidic devices prepared as described above. Antibiotic stock solutions (10 mg/mL in sterile deionized water) of vancomycin hydrochloride, tetracycline hydrochloride, and kanamycin monosulfate were used to prepare a 1:10 dilution series. Appropriate amounts of these dilutions were added to sterile deionized water to create a two-fold dilution series that varied from 0.5-1024 μg/mL. Antibiotic solution (2.94 μL) was added to each chamber with the lowest antibiotic concentration located closest to the inlet port and the highest antibiotic concentration located in the chamber closest to the vacuum well. After antibiotic loading, the device was placed in a laminar flow hood to evaporate the liquid. After the liquid was evaporated, the device was assembled by placing the layer of PDMS forming the channel section over the chamber layer containing the dried antibiotic such that the channels connected the chambers. The assembled device was then placed under vacuum.
(§6) The standardized culture was then diluted 1:200 in CAMBH media, pH 8.2 supplemented with 1% glucose and 0.05% phenol red to provide a colorimetric change upon growth. The device was removed from the vacuum and 20 μL of cell suspension was pipetted onto the inlet port. […] Bacterial growth changed the pH of the liquid nutrient media containing the indicator phenol red, and produced a visible color change that was used to identify the cell growth in chambers.

The subject of experiment [20] is P. mirabilis (HI4320). The description is as above. It is filed as cell-based. The note with it: 18 h at 35° C., CAMBH pH 8.2 with 1% glucose and 0.05% phenol red, dilution series 0.5-1024 μg/mL. On the procedure: as §5, §6
The subject of experiment [21] is E. coli (MG1655). The experiment is described as above. It counts as cell-based. The note with it: for MIC, Device: E. coli, 18 h at 35° C., CAMBH pH 8.2 with 1% glucose and 0.05% phenol red, dilution series 0.5-1024 μg/mL. On the procedure:
as §5, §6

In experiment [22] the test system is E. faecalis (1131). The description is as above. It is filed as cell-based. The note with it: 18 h at 35° C., CAMBH pH 8.2 with 1% glucose and 0.05% phenol red, dilution series 0.5-1024 μg/mL. On the procedure: as §5, §6
Throughout, for Growth, Predicted: key: + indicates growth; − indicates no growth.

Turning to `OC[C@H]1O[C@@](CO)(O[C@H]2O[C@H](CO)[C@@H](O)[C@H](O)[C@H]2O)[C@@H](O)[C@@H]1O` [Sucrose, sucrose], the “Growth, Tube” value is reported as “+” in the experiment with K. pneumoniae [1], “+” in the experiment with S. aureus [2], “+” in the experiment with E. faecalis [3] and “−” in the experiment on E. coli (UT189) [4]. Besides, the “Growth, Predicted” value in the experiment on E. faecalis [5] was “+”; with S. aureus [6], “+”; in the experiment on E. coli (UT189) [11], “−”. In addition, the “Growth, Device” value with K. pneumoniae [7] is recorded as “+”; with S. aureus [8] it was “+”; with E. coli (UT189) [10] it was “−”. Moreover, the “growth in device chamber” value with K. pneumoniae [7], with S. aureus [8], in the experiment on E. faecalis [9] and with V. cholerae was “grew” each time.
For `OC[C@H]1O[C@H](O[C@H]2O[C@H](CO)[C@@H](O)[C@H](O)[C@H]2O)[C@H](O)[C@@H](O)[C@@H]1O` [Trehalose, trehalose], the “Growth, Tube” value with K. pneumoniae [1], in the experiment on S. aureus [2], in the experiment on E. faecalis [3] and with E. coli (UT189) [4] was “+” each time. Further, the “Growth, Predicted” value with E. faecalis [5], with S. aureus [6] and in the experiment on E. coli (UT189) [11] was “+” in each case. Further, the entries for the “Growth, Device” value in the experiment on K. pneumoniae [7], in the experiment with S. aureus [8] and in the experiment on E. coli (UT189) [10] were “+”, “+” and “−”, respectively. Also, the “growth in device chamber” value in the experiment with K. pneumoniae [7], with S. aureus [8], in the experiment on E. faecalis [9] and with V. cholerae was “grew” each time.
As to `NC[C@H]1O[C@H](O[C@H]2[C@H](O)[C@@H](O[C@H]3O[C@H](CO)[C@@H](O)[C@H](N)[C@H]3O)[C@H](N)C[C@@H]2N)[C@H](O)[C@@H](O)[C@@H]1O` [kanamycin, kanamycin monosulfate], in experiment [12], the “effect on growth of the strain” value is “did not have any effect”. The “MIC, Broth” value is 8 in the experiment on E. coli (MG1655) [13], 4 against P. mirabilis (HI4320) [14], 64 in the experiment on E. faecalis (1131) [15] and 2 with K. pneumoniae [17]. Besides, the MIC was 8 mg/L in the experiment on E. coli (MG1655) [13] (Escherichia coli, MG1655, Example 5, standard liquid broth dilution assay, read-out: MIC of the wild type strain, control broth dilution); 64 mg/L in experiment [16]; 128 mg/L in experiment [18]; 4 mg/L in the experiment with E. coli (MG1655) [21] (Escherichia coli, MG1655, Example 5, 18 h at 35° C., phenol red indicator, read-out: MIC of the wild type strain). Besides, the “MIC, Device” value is on record as 2 in the experiment on K. pneumoniae [19], 8 against P. mirabilis (HI4320) [20], 4 against E. coli (MG1655) [21] and 128 against E. faecalis (1131) [22].
On to `CN(C)[C@@H]1C(O)=C(C(N)=O)C(=O)[C@@]2(O)C(O)=C3C(=O)c4c(O)cccc4[C@@](C)(O)[C@H]3C[C@@H]12.Cl` [tetracycline, tetracycline hydrochloride], for which the “effect on growth of the strain” value in experiment [12] is recorded as “inhibited the growth”. For the same compound, the “phenotype of the strain by breakpoint values” in experiment [12] (tetracycline breakpoints) was “intermediate (intermediate=2 μg/mL)”. In addition, the “MIC, Broth” value against E. coli (MG1655) [13] was determined as 1; in the experiment on P. mirabilis (HI4320) [14], 256; in the experiment with E. faecalis (1131) [15], 32; with K. pneumoniae [17], 8. Besides, the “MIC, Device” value was 8 against K. pneumoniae [19], 128 against P. mirabilis (HI4320) [20], 2 with E. coli (MG1655) [21] and 64 in the experiment with E. faecalis (1131) [22].
